The assay addresses HDAC1 (Homo sapiens, UniProt Q13547).

Chain of HDAC1 (Q13547 whole entry): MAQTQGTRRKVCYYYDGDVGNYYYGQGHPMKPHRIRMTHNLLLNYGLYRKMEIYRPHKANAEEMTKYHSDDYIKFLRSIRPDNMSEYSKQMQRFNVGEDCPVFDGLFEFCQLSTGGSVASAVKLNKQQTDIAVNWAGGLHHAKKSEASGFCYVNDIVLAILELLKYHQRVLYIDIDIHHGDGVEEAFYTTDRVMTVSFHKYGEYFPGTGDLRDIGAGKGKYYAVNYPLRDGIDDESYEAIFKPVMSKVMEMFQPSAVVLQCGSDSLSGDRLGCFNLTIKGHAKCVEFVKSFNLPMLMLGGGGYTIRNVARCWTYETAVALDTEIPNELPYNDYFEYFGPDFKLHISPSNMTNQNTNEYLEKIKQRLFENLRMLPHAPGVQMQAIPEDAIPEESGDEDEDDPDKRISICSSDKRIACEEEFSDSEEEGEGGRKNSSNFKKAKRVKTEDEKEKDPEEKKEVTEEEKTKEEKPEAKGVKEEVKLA

For `CC(/C=C/C(=O)NO)=C\[C@@H](C)C(=O)c1ccc(N(C)C)cc1` [TSA, trichostatin A], the “deacetylase assay with immunopurified Flag-HDAC1 and acetylated p53 protein” value is recorded as 1 µM.

The values above are taken from PMC3376857 (2012).
